In US20080125409A1, “1,5-Diheterocycle-1H-Triazole Derivative” (DAIICHI PHARMACEUTICAL CO., LTD., priority 2004, published 2008):

Key:
[1] = test system: platelet-rich plasma (PRP), collagen-induced platelet aggregation; assay: Collagen-stimulated platelet aggregation inhibition in human platelet-rich plasma; format: cell-based; details: 2 min, 2 min at 37° C. with compound
Method: Platelet Aggregation Suppressing Action
Human blood was collected using a 3.13% solution of sodium citrate as an anticoagulant, in a volume 1/10 of the blood volume, and was centrifuged at 180 g for 10 minutes to separate platelet-rich plasma (PRP) from the blood. The PRP in the upper layer was isolated, and then the lower layer was centrifuged at 1600 g for 10 minutes to isolate the platelet-poor plasma (PPP) in the upper layer. 1 μL of a solution of the compound of the Examples) was added to 200 μL of the PRP, and the mixture was allowed to stand for 2 minutes at 37° C. Then, 2 μL of collagen was added thereto, so as to induce platelet aggregation. The rate of platelet aggregation was measured using a PAM-12C (SSR Engineering). By taking the light transmittance of the PPP as the value indicating 100% aggregation, the rates of platelet aggregation at various concentrations of the compound of the Examples were determined, and the IC50 value was calculated.

COX-1 = molecular target: T1, COX-1 (Ovis aries, UniProt P05979); assay: Cyclooxygenase-1 (COX-1) inhibitory effect (Cayman COX Inhibitor Screening Assay Kit, PGF2α ELISA); format: biochemical; details: in the presence of 50 μM of the compound; PGF2α production without compound regarded as 100%; read-out: COX inhibitory activity COX-1 (rate of COX-1 inhibition)
T1 construct: purchased Cayman Chemical Company 560101 and 560121
T1 sequence (P05979 25-600): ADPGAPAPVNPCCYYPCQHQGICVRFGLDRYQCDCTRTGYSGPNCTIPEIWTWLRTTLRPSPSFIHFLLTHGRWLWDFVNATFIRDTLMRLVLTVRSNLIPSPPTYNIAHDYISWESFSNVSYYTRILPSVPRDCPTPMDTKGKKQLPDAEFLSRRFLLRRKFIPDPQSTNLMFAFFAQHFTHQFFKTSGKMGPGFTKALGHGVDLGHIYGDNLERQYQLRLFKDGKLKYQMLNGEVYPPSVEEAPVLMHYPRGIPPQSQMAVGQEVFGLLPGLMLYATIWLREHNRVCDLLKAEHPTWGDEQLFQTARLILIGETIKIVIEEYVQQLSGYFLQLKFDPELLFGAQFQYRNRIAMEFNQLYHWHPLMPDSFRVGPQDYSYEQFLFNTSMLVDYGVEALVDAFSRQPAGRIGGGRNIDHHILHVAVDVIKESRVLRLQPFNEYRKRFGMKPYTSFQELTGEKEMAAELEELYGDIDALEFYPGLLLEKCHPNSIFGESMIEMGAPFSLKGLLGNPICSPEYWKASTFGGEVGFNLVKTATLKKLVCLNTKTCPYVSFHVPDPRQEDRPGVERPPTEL
Text: Cyclooxygenase-1 (COX-1) Inhibitory Effect
For the measurement of the COX-1 inhibitory activity of the compound of the Examples, a COX Inhibitor Screening Assay Kit manufactured by Cayman Chemical Company (Catalog Nos. 560101 and 560121) was used.
Before starting the measurement, a reaction buffer, heme, arachidonic acid, SnCl2, EIA buffer, a washing buffer, prostaglandin (PG)-screening EIA standard solution, PG-screening acetylcholinesterase (AchE), a tracer […], and PG-screening EIA antiserum were provided.
(1) Production of PGF2α by COX-1
A reaction solution containing the compound of the Examples (50 μM) and COX-1 was allowed to stand at 37° C. for 10 minutes, then 10 μl of arachidonic acid was added thereto, and the resultant mixture was allowed to stand at 37° C. for 2 minutes. After the reaction, 50 μl of 1 N hydrochloric acid was added to the reaction mixture to thereby stop the reaction, and 100 μl of a SnCl2 solution was added thereto. The resultant mixture was allowed to stand at room temperature for 5 minutes.
(2) Quantification of PGF2α by ELISA
50 μl of antiserum (rabbit anti-PGF2α antibody) was added to each of the wells of a 96-well plate coated with mouse anti-rabbit IgG. Then, 50 μl of a solution prepared by diluting the aforementioned reaction solution for the production of PGF2α to 2000-folds, and 50 μl of an AchE tracer were added sequentially to the wells, and the plate was allowed to stand at room temperature for 18 hours. Each well was washed 5 times with the washing buffer to remove excessive AchE tracer, and then 200 μl of Ellman reagent was added to each well. The plate was kept in a dark room for 60 minutes, and then, absorbance at 405 nm was measured.
(3) Calculation of Inhibitory Activity of the Compound of the Examples
A standard curve was produced using a PG-screening EIA standard solution, and the amount of PGF2α production was determined from the absorbance obtained in the above. The rate of COX-1 inhibition in the presence of 50 μM of the compound of the Examples was calculated.

Structure (SMILES) | IC50 [1] | inhibition at 50 µM (COX-1)
COc1ccc(-n2nc(C(=O)NC3(C)CC3)nc2-c2ccc(C)cn2)cn1 [Example 44, N-(1-Methylcyclopropyl)-1-(6-methoxy-3-pyridyl)-5-(5-methyl-2-pyridyl)-1H-1,2,4-triazole-3-carboxamide] | 220 nM | –
COc1ccc(-n2nc(C(=O)NC(C)(C)C)nc2-c2ccccn2)cn1 [Example 1, N-tert-Butyl-1-(6-methoxy-3-pyridyl)-5-(2-pyridyl)-1H-1,2,4-triazole-3-carboxamide] | 40 nM | 7.5%
COc1ccc(-n2nc(C(=O)N3CCC(F)(F)CC3)nc2-c2ccc(CO)cn2)cn1 [Example 41, 1-[5-(5-Hydroxymethyl-2-pyridyl)-1-(6-methoxy-3-pyridyl)-1H-1,2,4-triazole-3-carbonyl]-4,4-difluoropiperidine] | 220 nM | 4.6%
COc1ccc(-n2nc(C(=O)NC(C)(C)C)nc2-c2cnc(C)cn2)cn1 [Example 6, N-tert-Butyl-1-(6-methoxy-3-pyridyl)-5-(5-methyl-2-pyrazinyl)-1H-1,2,4-triazole-3-carboxamide] | 170 nM | -15.8%
COc1ccc(-n2nc(C(=O)NC(C)(C)C)nc2-c2ccc(N)cn2)cn1 [Example 14, 5-(5-Amino-2-pyridyl)-1-(6-methoxy-3-pyridyl)-1H-1,2,4-triazole-3-carboxylic acid N-tert-butylamide] | 130 nM | –
COc1ccc(-n2nc(C(=O)N3CCOCC3)nc2-c2ccc(C)cn2)cn1 [Example 38, 4-[1-(6-Methoxy-3-pyridyl)-5-(5-methyl-2-pyridyl)-1H-1,2,4-triazole-3-carbonyl]morpholine] | 250 nM | 0.9%
Cc1ccc(-c2nc(C(=O)NC(C)(C)C)nn2-c2ccc(C)nc2)nc1 [Example 35, N-tert-Butyl-1-(6-methyl-3-pyridyl)-5-(5-methyl-2-pyridyl)-1H-1,2,4-triazole-3-carboxamide] | 120 nM | -17.2%
COc1ccc(-n2nc(C(=O)NC(C)C)nc2-c2ccccn2)cn1 [Example 22, N-isoPropyl-1-(6-methoxy-3-pyridyl)-5-(2-pyridyl)-1H-1,2,4-triazole-3-carboxamide] | 530 nM | –
COc1ccc(-n2nc(C(=O)NC(C)(C)C)nc2-c2ccc(Cl)cn2)cn1 [Example 11, N-tert-Butyl-5-(5-chloro-2-pyridyl)-1-(6-methoxy-3-pyridyl)-1H-1,2,4-triazole-3-carboxamide] | 88 nM | –
COc1ccc(-n2nc(C(=O)NCC(C)(C)C)nc2-c2ccc(C)cn2)cn1 [Example 18, 1-(6-Methoxy-3-pyridyl)-5-(5-methyl-2-pyridyl)-1H-1,2,4-triazole-3-carboxylic acid N-neopentylamide] | 13 nM | –
COc1ccc(-n2nc(C(=O)NC(C)(C)C)nc2-c2ccc(C#N)cn2)cn1 [Example 3, N-tert-Butyl-5-(5-cyano-2-pyridyl)-1-(6-methoxy-3-pyridyl)-1H-1,2,4-triazole-3-carboxamide] | 160 nM | 19.5%
COc1ccc(-n2nc(C(=O)N3CCN(C)CC3)nc2-c2ccc(C)cn2)cn1 [Example 29, 1-[1-(6-Methoxy-3-pyridyl)-5-(5-methyl-2-pyridyl)-1H-1,2,4-triazole-3-carbonyl]-4-methylpiperazine] | 220 nM | -23.1%
COc1ccc(-n2nc(C(=O)N3CCC[C@H]3CF)nc2-c2ccc(C)cn2)cn1 [Example 37, (2S)-1-[1-(6-Methoxy-3-pyridyl)-5-(5-methyl-2-pyridyl)-1H-1,2,4-triazole-3-carbonyl]-2-fluoromethylpyrrolidine] | 16 nM | 6.6%
